# In US20240299314A1 (priority 2023, published 2024):
# Assay: PTX release by dialysis bag diffusion technique (HPLC)
# Type: physicochemical
# Details: 1:9 DMSO:PBS solution
# Description: where mo (mg) is the initial amount of PTX used; mr (mg) is the residual amount of PTX in the loading solution; mNPs (g) is the […] used in the loading experiment. A dialysis bag diffusion technique was used for examining drug release behaviors. Briefly, PTX@NPs were dispersed in 1 mL of release solution (DMSO: PBS 1:9 v/v) and transferred to a dialysis bag (molecular weight cut off=14 kDa) and shaken in 5 mL of release solution at 37° C. At the predetermined time intervals, 200 μL of the solution was withdrawn and the same amount of fresh solution was added into the system. The released PTX content from PTX@NPs was determined by HPLC analysis. HPLC analyses were recorded on Agilent Technologies 1200 Series with ZORBAX SB-C18 column (Agilent, 5 μm, 4.6×250 mm). The mobile phase was water:acetonitrile (50:50 v/v). The separation was carried out at 30° C. The detection wavelength was 227 nm and a flow rate of 1.0 mL·min^−1 was employed. A sample volume of 20 μL was injected. Free PTX was used as a control to compare with PTX@NPs.
smiles,measurement,setting,value
"CC(=O)O[C@H]1C(=O)[C@@]2(C)[C@H]([C@H](OC(=O)c3ccccc3)[C@]3(O)C[C@H](OC(=O)[C@H](O)[C@@H](NC(=O)c4ccccc4)c4ccccc4)C(C)=C1C3(C)C)[C@]1(OC(C)=O)CO[C@@H]1C[C@@H]2O [free PTX, paclitaxel]",PTX released at the early stage of the release,"37° C., dialysis bag",~15%
same,release behavior,after the early stage,short-term release
